# PubChem BioAssay AID720512 (Broad Institute, 2013)
# The source made the active and inactive calls. The rule behind the calls is not given here.
# Target: Toxin B (TcdB) glycohydrolase, Clostridioides difficile 630
# Experiment: TcdB glycohydrolase inhibitors, dose response, biochemical, cherry-pick, plate reader (AID 720512)
# Settings: recombinant TcdB glycohydrolase activity
row,Compound,AC50
1,Cc1cc(C(=O)NNc2ccc(C)c(C)c2)no1,2.24 µM
2,Oc1ccc(Nc2nc(Cl)nc(NCc3ccco3)n2)cc1,21.7 µM
3,COc1cc(/C=C/C(=O)OCC(=O)NC(=O)NC(C)(C)C)ccc1O,> 39 µM (inactive)
4,Nc1ccc2nc(-c3cccs3)[nH]c2c1,> 39 µM (inactive)
5,Oc1ccc(-c2cn3ccccc3n2)cc1,12.1 µM
6,CCOc1cc(/C=N/n2cnnc2)ccc1O,> 39 µM (inactive)
7,CCC(=O)N1CC[C@@H]2[C@H]1c1cc(-c3ccccc3)ccc1N(C)[C@H]2CO,> 42 µM (inactive)
8,Cc1cc(C)c2nc(C)cc(N/N=C/c3ccc(O)cc3)c2c1,> 39 µM (inactive)

# Same assay, conditions: recombinant TcdB glycohydrolase activity, at 19.5 µM (top of the series)
row,Compound,"activity change, negative = inhibition"
1,O=C(NNC(=O)c1cccc2ccccc12)c1cccc(F)c1,inactive
2,CNC(=S)N/N=C/c1c(C(=O)OC)cnn1-c1ccc(F)cc1F,inactive
3,Cc1ccc(Cc2c(-c3ccc(C)cc3)nc3ccc(Cl)cn23)cc1,inactive
4,Cn1c(=O)[nH]c(=O)c2c1[nH]c(=S)n2CCCc1ccccc1,inactive
5,CN1C(=O)CSc2ccc(NC(=O)N3CCc4ccccc43)cc21,inactive
6,O=[N+]([O-])c1ccc(/C=C/c2ccc3ccccc3n2)cc1,inactive
7,COc1ccc(C(=O)Nc2ccccc2C(=O)O)cc1Cl,inactive
8,COc1cc2oc3ccc(C#Cc4ccccn4)cc3c(=O)c2cc1OC,inactive
9,COc1ccc(-c2nc(N)ncc2-c2ccccc2OC)c(O)c1,inactive
10,COc1ccc(C(CNC(=O)c2oc3ccc(OC)cc3c2C)N2CCCC2)cc1 (centres undefined),inactive
11,COc1cc(/C=C/c2sc3ccccc3[n+]2CCCS(=O)(=O)[O-])ccc1O,inactive
12,COC(=O)Cc1ccc(NC(=S)NCc2ccco2)cc1,inactive
13,COc1ccc(C(=O)Nc2c(-c3cccs3)c(=O)c3ccccc3n2C)cc1,inactive
14,CCn1cc(C(=O)O)c(=O)c2cc(F)c(N3CCN(C(=S)NC(=O)c4ccccc4Br)CC3)cc21,inactive
15,CC[C@H](C)[C@@H]1NC(=O)c2cc([N+](=O)[O-])cc(I)c2NCC[C@@H](C(N)=O)NC(=O)[C@H](CCCN=C(N)N)NC1=O,inactive
16,COc1cccc(C(=O)COC(=O)c2ccc(NC(=O)c3ccccc3)cc2)c1,inactive
17,COc1ccc(CC(=O)C2C(=O)N(C)c3ccccc32)cc1OC (centres undefined),inactive
18,Cc1nn(CCOc2ccccc2)c(=O)n1-c1ccc(Cl)cc1,inactive
19,O=C(c1cn(-c2ccccc2)nc1-c1ccncc1)n1nnc2ccccc21,inactive
20,CC1(C)CC(=O)C(C=Nc2ccc(O)cc2)=C(O)C1,inactive
21,O=C(c1ccc(N2CCOCC2)c([N+](=O)[O-])c1)N1CCN(c2ccccc2F)CC1,inactive
22,c1ccc(-c2nnc(OCC3CCCO3)c3ccccc23)cc1 (centres undefined),inactive
23,COc1ccc(/C=N/N=C2/NC(=O)C(CC(=O)NC(N)=O)S2)cc1 (centres undefined),inactive
24,Cc1scc(C(=O)N2CCN(c3ccc(Cl)cc3)CC2)c1C,inactive
25,COc1ccccc1/C=C/c1onc(C)c1S(=O)(=O)N1CCC(C(=O)NC(C)C)CC1,inactive
26,COc1cccc(-n2c(SCC(=O)N3CCOCC3)nnc2-c2c[nH]c3ccccc23)c1,inactive
27,COc1ccc(-c2cnc3c(c2)C(=O)N([C@@H](C)CO)C[C@H](C)[C@H](CN(C)C(=O)C2CCCCC2)O3)cc1,inactive

row,Compound,"activity change, negative = inhibition"
1,CCOC(=O)c1c(C)[nH]c(C)c1C(=O)COC(=O)/C=C/c1ccco1,inactive
2,COc1ccc(NC(=O)CSc2nccn2C)cc1S(N)(=O)=O,inactive
3,CN(C(=O)Cn1c(=O)oc2cc(S(=O)(=O)N3CCCC3)ccc21)C1CCCCC1,inactive
4,S=C(c1cn(Cc2ccccc2)c2ccccc12)N1CCOCC1,inactive
5,CN(C)c1ccc(C(=O)OCC#CCSc2nnc(-c3cccc4ccccc34)o2)cc1,inactive
6,CCOC(=O)c1cccc(NC(=O)CCNS(=O)(=O)c2cccc3nonc23)c1,inactive
7,CC1C(=O)C(C)C(c2ccc([N+](=O)[O-])cc2)NC1c1ccc([N+](=O)[O-])cc1 (centres undefined),inactive
8,O=C(Nc1nnc(-c2ccco2)o1)C1CC1,inactive
9,Cc1noc(/C=C/c2ccccc2F)c1S(=O)(=O)N1CCC(C(=O)N2CCN(C)CC2)CC1,inactive
10,COC(=O)C1=C[C@@H](C(=O)OC)[C@@H]2C3=C(C(=O)[C@]2(C)NC(=O)c2ccccc2)[C@H](C)n2c(=O)n(C)c(=O)n2[C@@H]3C1,inactive
11,Clc1ccc(-c2nc3ccc(Cl)cn3c2Cc2ccccc2)cc1,inactive
12,O=C(COc1ccccc1)Nc1ccc(S(=O)(=O)Nc2ncccn2)cc1,inactive
13,CN1CCN(/N=C/c2c[nH]c3ccccc23)CC1,inactive
14,CC(C)(C)N1C(=O)c2ccc(C(=O)Nc3ccc(O)cc3)cc2C1=O,inactive
15,COc1cc(Cc2ccc(N)c(OC)c2)ccc1N,inactive
16,CCOc1ccccc1/C=C/c1onc(C)c1S(=O)(=O)N1CCC(C(=O)NC(C)(C)C)CC1,inactive
17,O=C(C[C@@H]1C[C@H]2c3cc(NC(=O)Nc4ccccc4)ccc3O[C@H]2[C@H](CO)O1)NCc1ccccc1,inactive
18,Cc1c(CCCC(=O)O)sc(N)c1C(=O)c1cccc(C(F)(F)F)c1,inactive
19,Cc1cccc(/C=C/c2onc(C)c2S(=O)(=O)N2CCC(C(=O)N3CCC(C)CC3)CC2)c1,inactive
20,COc1ccc(Cl)cc1NC(=O)CN(C)C(=O)c1cc2c(s1)CCCC2,inactive
21,Cc1ccc(S(=O)(=O)Oc2ccc(/C=N/NC(=O)c3nn(C)cc3[N+](=O)[O-])cc2)cc1,inactive
22,COc1ccc(C=C2CCC3C(=O)CCCC3(C)C2=O)cc1 (centres undefined),inactive
23,CN(C)/C=C(\C#N)C(=O)Nc1ccc(O)cc1F,inactive
24,Cc1cc(C)cc(N=C2NC(=O)CS2)c1,inactive
25,C[C@@H]1CN([C@@H](C)CO)S(=O)(=O)c2ccc(C#Cc3ccncc3)cc2O[C@H]1CN(C)C(=O)C1CC1,inactive
26,CCOc1ccc2c(C)nc(NC3=NC(C)(C)C=C(C)N3)nc2c1,inactive
27,CCOC(=O)Cn1c(C(F)(F)F)nc2nc(Cl)c(Cl)nc21,inactive

row,Compound,"activity change, negative = inhibition"
1,CCCNC(=O)N1CC[C@@H]2[C@H]1c1cc(-c3ccccc3)ccc1N(C)[C@H]2CO,inactive
2,Nc1cc(N)cc(C(=O)OCC(=O)Nc2cc(S(=O)(=O)N3CCCCC3)ccc2Cl)c1,inactive
3,CC(C(=O)OCC(=O)c1c(N)n(C)c(=O)n(C)c1=O)N1C(=O)c2ccccc2C1=O (centres undefined),inactive
4,Cc1csc(N=Nc2ccc(N(C)C)cc2)[n+]1[O-],inactive
5,Cc1ccc(NC(=O)C2OCCc3ccccc32)cc1C (centres undefined),inactive
6,O=C(Nc1ccc(O)cc1)/C(=C/c1ccco1)NC(=O)c1ccccc1,inactive
7,Cc1cc(/C=C(\C#N)C(=O)N2CCCCC2)cc(C)c1O,inactive
8,CSc1ccc(/C=N/N2CCN(Cc3ccc(Cl)cc3)CC2)cc1,inactive
9,CCc1ccc(NC(=O)C2=CC(c3ccc(OC)cc3)=NS(=O)(=O)N2C)cc1,inactive
10,O=C(C[C@H]1CC[C@@H]2[C@H](COC[C@@H](O)CN2C(=O)Nc2ccc(Cl)c(Cl)c2)O1)NCc1ccncc1,inactive
11,c1ccc(SCc2nc3ccccc3s2)nc1,inactive
12,O=C(O)c1c(C(=O)O)c(-c2ccc(Br)cc2)n2c1CSC2,inactive
13,COC(=O)C1=C(c2ccc(OCc3ccccc3)cc2)C[C@@H]2CC[C@H]1N2C(=O)NCCCc1ccccc1,inactive
14,Cc1onc(-c2ccccc2Cl)c1C(=O)Nc1cnn(Cc2ccccc2)c1,inactive
15,O=S(=O)(c1ccccc1)N1CCN(Cc2nnc(-c3ccccc3)o2)CC1,inactive
16,O=CN(c1ccccc1)c1ccc2ccccc2c1,inactive
17,Cc1cccc(/C=C/c2onc(C)c2S(=O)(=O)N2CCC(C(=O)N3CCCCC3)CC2)c1,inactive
18,COc1ccc(C(=O)OCC(=O)Nc2ccc3[nH]c(=O)[nH]c3c2)c(OC)c1OC,inactive
19,Cc1cc(O)ccc1N=Cc1c(C(F)(F)F)[nH][nH]c1=O,inactive
20,CC(=O)C[C@H]1c2ccccc2S(=O)(=O)N1C1CCCCC1,inactive
21,O=C(Nc1ccc(O)cc1)c1ccc2c(c1)C(=O)N(Cc1ccco1)C2=O,inactive
22,Oc1ccc(/C=N/Nc2nc(N3CCCC3)nc(N3CCCC3)n2)cc1O,inactive
23,CCN(C(=O)COC(=O)c1cccnc1SC)C1CCCCC1,inactive
24,Cc1ccc(S(=O)(=O)N2CCOCC2)cc1C(=O)NCCCN1CCCC1=O,inactive
25,CC(OC(=O)[C@@H](NC(=O)OCc1ccccc1)C(C)C)C(=O)Nc1ccc(N2CCOCC2)cc1 (some centres undefined),inactive

# Same assay, conditions: recombinant TcdB glycohydrolase activity, at 21 µM (top of the series)
row,Compound,"activity change, negative = inhibition"
1,CNC(=O)C[C@H]1CC[C@@H]2[C@H](COc3ccc(NS(=O)(=O)c4ccccc4C)cc3C(=O)N2C)O1,inactive
2,CN(C)CC(=O)N1CC[C@@H]2[C@H]1c1cc(-c3ccccc3)ccc1N(C)[C@H]2CO,inactive
